Test results published in the supplement of paper PMC10307832.

Assays:
Experiment in all cases: relative viability (nuclei count vs DMSO), 5 days (fraction); higher = more cells survive
Sulindac + Decitabine = compound: CC1=C(CC(=O)O)c2cc(F)ccc2/C1=C\c1ccc([S+](C)[O-])cc1 [Sulindac] + Nc1ncn([C@H]2C[C@H](O)[C@@H](CO)O2)c(=O)n1 [Decitabine] (partner 2 µM)
Outline: (§1)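 Nuclei were stained with Hoechst during a one-step fixation (final 0.05% Triton X-100, 1% formaldehyde, 1 ug/ml Hoechst) carried out 5 days after dosing, then counted on 4× images. The cells, lung cancer lines in 1536-well plates, had been dosed by pin tool the day after seeding with one drug alone or a fixed anchor-drug dose plus five library-drug doses (not always all listed) in √10 steps. Relative viability is the nuclei count in treated wells divided by that in vehicle wells, and each value is the median of duplicate plates.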

Staurosporine + Olaparib = compound: CN[C@@H]1C[C@H]2O[C@@](C)([C@@H]1OC)n1c3ccccc3c3c4c(c5c6ccccc6n2c5c31)C(=O)NC4 [Staurosporine] + O=C(c1cc(Cc2n[nH]c(=O)c3ccccc23)ccc1F)N1CCN(C(=O)C2CC2)CC1 [Olaparib] (partner 8 µM)
Outline: as §1

[1] = compound: O=c1[nH]cc(F)c(=O)[nH]1 [5-Fluorouracil] + C[C@@H](Oc1cc(-c2cnn(C3CCNCC3)c2)cnc1N)c1c(Cl)ccc(F)c1Cl [Crizotinib] (partner 1 µM)
Outline: as §1

[2] = compound: O=c1[nH]cc(F)c(=O)[nH]1 [5-Fluorouracil] + C[C@]1(O)C[C@@H](c2nc(-c3ccc4ccc(-c5ccccc5)nc4c3)c3c(N)nccn32)C1 [Linsitinib] (partner 1 µM)
Outline: as §1

Cell Line	relative viability (Sulindac + Decitabine; first compound 0.08 µM)	relative viability (Sulindac + Decitabine; first compound 0.253 µM)	relative viability (Sulindac + Decitabine; first compound 0.8 µM)	relative viability (Sulindac + Decitabine; first compound 2.53 µM)	relative viability (Sulindac + Decitabine; first compound 8 µM)	relative viability (Staurosporine + Olaparib; first compound 0.005 µM)	relative viability (Staurosporine + Olaparib; first compound 0.01581 µM)	relative viability (Staurosporine + Olaparib; first compound 0.05 µM)	relative viability (Staurosporine + Olaparib; first compound 0.1581 µM)	relative viability (Staurosporine + Olaparib; first compound 0.5 µM)	relative viability ([1]; first compound 0.02 µM)	relative viability ([1]; first compound 0.2 µM)	relative viability ([1]; first compound 0.6325 µM)	relative viability ([1]; first compound 2 µM)	relative viability ([2]; first compound 0.02 µM)	relative viability ([2]; first compound 0.2 µM)	relative viability ([2]; first compound 0.6325 µM)	relative viability ([2]; first compound 2 µM)
NCI-H23	0.298	0.331	0.319	0.324	0.319	0.232	0.138	0.183	0.135	0.102	0.613	0.619	0.415	0.305	0.488	0.631	0.444	0.271
NCI-H322M	0.599	0.614	0.657	0.631	0.699	0.831	0.691	0.556	0.411	0.345	1.09	0.807	0.699	0.491	0.898	0.747	0.652	0.64
NCI-H358	0.235	0.2	0.196	0.186	0.239	0.519	0.403	0.0954	0.0798	0.058	0.965	0.664	0.671	0.282	0.704	0.883	0.867	0.483
NCI-H441	0.255	0.232	0.252	0.245	0.264	0.352	0.319	0.205	0.176	0.115	0.511	0.767	0.388	0.333	0.51	0.519	0.397	0.301
NCI-H460	0.745	0.536	0.438	0.435	0.601	0.27	0.134	0.159	0.0506	0.0242	1	0.44	0.186	0.0322	0.872		0.163	0.042
NCI-H520	0.516	0.568	0.467	0.431	0.505	0.347	0.302	0.211	0.138	0.139	0.819	0.832	0.6	0.372	0.892	1.07	0.751	0.356
NCI-H596	0.894	0.982		1.2	1.1	0.854	0.542	0.302	0.25	0.297	0.971	0.788	0.64	0.578	1.02	0.834	0.689	0.567
NCI-H647	0.392	0.51	0.361	0.442	0.426	0.275	0.199	0.0866	0.0394	0.0357	1.13	1.1	0.941	0.692	1.05	1.32	1.16	0.701
NCI-H650	0.33	0.325	0.341	0.284	0.339	0.313	0.246	0.25	0.229	0.124	0.61	0.589	0.46	0.421	0.866	0.691	0.511	0.394
NCI-H661	0.648	0.544	0.523	0.574	0.609	0.65	0.556	0.521	0.333	0.175	0.973	1.11	1.05	1.02	0.466	0.731	0.654	0.522
NCI-H727	0.965	1.02	0.874	0.866	0.957	0.638	0.422	0.413	0.434	0.419	1.07	1.05	0.891	0.703	0.272	0.443	0.31	0.332
NCI-H838	0.497	0.476	0.425	0.45	0.507	0.24	0.175	0.154	0.122	0.0873	0.873	0.809	0.498	0.297	1.01	1.06	0.578	0.312
NCI-H1355	0.325	0.343	0.366	0.338	0.366	0.751	0.289	0.253	0.185	0.173	1.04	0.672	0.373	0.266	0.639	0.681	0.398	0.314
NCI-H1437	0.667	0.619	0.547	0.591	0.568	0.506	0.456	0.401	0.168	0.106		0.257	0.2	0.155		0.26	0.169	0.119
NCI-H1651	0.748	0.702	0.578	0.568	0.617	0.153	0.159	0.168	0.15	0.126	0.825	0.838	0.452	0.38	0.973	0.859	0.602	0.468
NCI-H1666	0.679	0.73	0.668	0.696	0.713	0.682	0.567	0.583	0.476	0.432	0.94	0.406	0.366	0.344	0.777	0.412	0.401	0.321
NCI-H1734	0.524	0.522	0.435	0.523	0.496	0.566	0.354	0.257	0.194	0.0713	0.709	0.742	0.533	0.37	0.762	1.05	0.706	0.546
NCI-H1755	0.798	0.634	0.705	0.785	0.833	0.731	0.421	0.25	0.236	0.234	0.838	0.655	0.313	0.258	0.96	0.796	0.322	0.254

Cell Line	relative viability (Sulindac + Decitabine; first compound 0.08 µM)	relative viability (Sulindac + Decitabine; first compound 0.253 µM)	relative viability (Sulindac + Decitabine; first compound 0.8 µM)	relative viability (Sulindac + Decitabine; first compound 2.53 µM)	relative viability (Sulindac + Decitabine; first compound 8 µM)	relative viability (Staurosporine + Olaparib; first compound 0.005 µM)	relative viability (Staurosporine + Olaparib; first compound 0.01581 µM)	relative viability (Staurosporine + Olaparib; first compound 0.05 µM)	relative viability (Staurosporine + Olaparib; first compound 0.1581 µM)	relative viability (Staurosporine + Olaparib; first compound 0.5 µM)	relative viability ([1]; first compound 0.02 µM)	relative viability ([1]; first compound 0.2 µM)	relative viability ([1]; first compound 0.6325 µM)	relative viability ([1]; first compound 2 µM)	relative viability ([2]; first compound 0.02 µM)	relative viability ([2]; first compound 0.2 µM)	relative viability ([2]; first compound 0.6325 µM)	relative viability ([2]; first compound 2 µM)
NCI-H1792	0.476	0.632		0.581	0.417	0.147	0.0705	0.0822	0.097	0.0652	1.07	0.943	0.31	0.164	0.554	0.484	0.14	0.0794
NCI-H1915	0.229	0.268	0.266	0.261	0.27	0.214	0.124	0.159	0.0952	0.0708	0.819	0.949	0.824	0.619	1.06	1.1	1.03	0.803
NCI-H1944	0.489	0.44	0.412	0.426	0.449	0.38	0.226	0.284	0.273	0.261	0.993	0.92	0.392	0.193	1.13	1.19	0.497	0.27
NCI-H1975	0.594	0.413	0.352	0.394	0.36	0.306	0.225	0.165	0.107	0.104	1	1.01	0.429	0.263	0.902	1.02	0.489	0.308
NCI-H1993	0.558	0.298	0.454	0.61	0.627	0.941	0.73	0.717	0.497	0.313	0.773	0.839	0.645	0.622	0.8	0.714	0.713	0.608
NCI-H2009	0.455	0.397	0.371	0.362	0.359	0.532	0.248	0.0909	0.112	0.0765	1.12	0.989	0.765	0.646	1.16	1.15	0.934	0.735
NCI-H2023	0.233	0.234	0.203	0.206	0.254	0.265	0.192	0.117	0.0758	0.0558	0.621	0.189	0.105	0.106	0.45	0.242	0.131	0.0929
NCI-H2085	0.497	0.556	0.545	0.525	0.5	0.694	0.471	0.556	0.398	0.344	0.962	1.01	0.756	0.636	0.894	0.963	0.932	0.587
NCI-H2087	0.186	0.324	0.254	0.246	0.323	0.48	0.414	0.217	0.0849	0.0689	0.921	0.817	0.541	0.509	0.91	0.865	0.657	
NCI-H2126	0.623	0.627	0.543	0.553	0.549	0.89	0.634	0.62	0.468	0.4	0.962	0.528	0.341	0.307	0.64	0.378	0.341	0.285
NCI-H2347	0.609	0.632	0.548	0.652	0.636	0.481	0.319	0.39	0.371	0.292	0.78	0.534	0.563	0.479	0.997	0.748	0.467	0.411
NCI-H2405	0.803	0.723	0.713	0.749	0.823	0.204	0.179	0.14	0.122	0.0873	0.871	0.954	0.797	0.579	0.883	0.967	0.881	0.672
NCI-H3122	0.409	0.385	0.352	0.435	0.439	0.575		0.481		0.281	0.252	0.274	0.232	0.215	1.09	0.799	0.415	0.223
PC-3 [JPC-3]	0.777	0.791	0.838	0.77	0.855	1.03	0.603	0.569	0.385	0.332	0.989	0.996	0.882	0.676	0.947	0.949	0.888	0.698
PC-14	0.25	0.274	0.223	0.215	0.257	0.147	0.0797	0.042	0.0556	0.043	0.899	0.928	0.788	0.456	0.938	0.943	0.765	
RERF-LC-KJ	0.667	0.706	0.608	0.63	0.751	0.726	0.537	0.304	0.228	0.188	0.867	0.841	0.849	0.665	0.832	0.775	0.792	0.764
SK-LU-1	0.691	0.642	0.53	0.647	0.673	0.337	0.172	0.156	0.128	0.13	0.98	0.977	0.918	0.74	1.23	1.08	1.13	0.941
SK-MES-1	0.378	0.418	0.304	0.436	0.386	0.299	0.192	0.158	0.132	0.156	1.01	0.743	0.368	0.319	1.07	0.799	0.433	0.337
